Patent publication US20230130066A1, “USE OF CYCLODEXTRINS IN DISEASES AND DISORDERS INVOLVING PHOSPHOLIPID DYSREGULATION” (priority 2017, published 2023)
Where “and” joins values, the source holds several entries; their conditions need not be identical. Identical values can stand only once. Entries after “also recorded” stand apart in the source; their conditions may differ. Like-named read-outs stand apart in the source and are kept apart here. Marks after values point to notes of the source that are not given here. Each block holds one compound with its values, some of them ahead of it.

Assays:
[1] = randomized n-of-1 dose escalation study: excretion of phospholipids into urine after oral administration; format: in vivo, human; conditions: for Excretion of phospholipids into urine, adj (expected level in healthy subjects subtracted) / Excretion of phospholipids into urine, adj per g dose / Excretion of phospholipids into urine, avg / Excretion of phospholipids into urine, single measurements: within 8 h
Method: An randomized n-of-1 dose escalation study was conducted to assess the activity of a clathrate of HP-α-CD and sodium caprate (C-10 fatty acid, capric acid, decanoic acid) in extracting phospholipids from serum into urine.

[2] = randomized blinded n-of-1 PK/PD study: FPLC of morning urine; format: in vivo; conditions: oral intake in the evening
From the text: The substances compared were • HP-α-CD, • the HP-α-CD/sodium caprate clathrate • a mixture of the HP-α-CD clathrate with the same amount of sodium caprate clathrate, also known as C-10 fatty acid, capric acid, decanoic acid. • a mixture of the HP-α-CD clathrate with the oily suspension proposed by (Tuvia S, Pelled D, et al. (2014) Pharmaceutical Research 31:2010-21).
Six samples per substance were taken.
The samples were taken in the evening before bed-time and urine samples were taken
Unexpectedly, however, PA (675) and SM (650) are not reduced and neither are lyso-phospholipids (460-550).

[3] = test system: BCa; assay: BCa mice: tumor volume by treatment; format: in vivo; conditions: Day*Treatment effect
[4] = cited from earlier work
[5] = test system: BBB; conditions: cited from earlier work
[6] = test system: unesterified cholesterol (UC) storage; conditions: 3-week-old Npc1-/- mice, dorsal neocortex, filipin; cited from earlier work
[7] = test system: Caco-2 cells; conditions: Caco-2 cells; cited from earlier work
[8] = 12 mM cyclodextrin, 5 μM A2E, blue-light irradiation or 1 d in the dark; cited from earlier work
[9] = test system: APP; conditions: AD mouse cells; cited from earlier work
[10] = even in the relative absence of cholesterol; cited from earlier work
[11] = target: BC resistance protein (BCRP/ABCG2) (Homo sapiens, UniProt Q9UNQ0); conditions: cited from earlier work
Chain of BC resistance protein (BCRP/ABCG2) (Q9UNQ0 whole entry): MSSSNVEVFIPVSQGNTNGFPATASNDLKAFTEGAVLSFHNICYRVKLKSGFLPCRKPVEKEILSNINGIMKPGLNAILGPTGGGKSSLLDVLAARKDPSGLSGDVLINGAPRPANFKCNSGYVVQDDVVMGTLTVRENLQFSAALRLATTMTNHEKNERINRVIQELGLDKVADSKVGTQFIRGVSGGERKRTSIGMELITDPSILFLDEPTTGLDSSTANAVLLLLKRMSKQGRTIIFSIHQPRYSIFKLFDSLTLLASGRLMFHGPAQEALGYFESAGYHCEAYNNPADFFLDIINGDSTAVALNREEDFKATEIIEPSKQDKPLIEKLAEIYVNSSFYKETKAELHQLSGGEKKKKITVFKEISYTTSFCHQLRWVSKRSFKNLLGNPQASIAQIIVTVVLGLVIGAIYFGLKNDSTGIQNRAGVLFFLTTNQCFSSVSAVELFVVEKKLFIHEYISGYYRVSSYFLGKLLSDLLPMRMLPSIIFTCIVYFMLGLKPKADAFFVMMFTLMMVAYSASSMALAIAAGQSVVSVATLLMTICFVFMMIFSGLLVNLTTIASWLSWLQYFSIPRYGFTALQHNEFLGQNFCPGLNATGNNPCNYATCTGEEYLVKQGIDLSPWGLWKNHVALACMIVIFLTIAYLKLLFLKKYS

[12] = test system: H7 Lewis lung cancer cell lines; conditions: three H7 Lewis lung cancer cell lines; cited from earlier work
[13] = test system: MDA-MB-241 and ZR751 BC cells; conditions: cited from earlier work
[14] = test system: MCF7 BC cells; conditions: cited from earlier work
[15] = test system: Aβ; conditions: rat hippocampal neurons infected with SFV carrying APP; cited from earlier work
[16] = test system: H7-O Lewis lung cancer cells; conditions: mice implanted with H7-O Lewis lung cancer cells; cited from earlier work
[17] = test system: primary effusion lymphoma (PEL); conditions: mice; cited from earlier work
[18] = test system: BC; conditions: in vivo; cited from earlier work
[19] = test system: MDA-MB-231 BC cells; conditions: independently of cholesterol; cited from earlier work
[20] = test system: NPC cells; conditions: cited from earlier work
[21] = target: T1, a-syn (Homo sapiens, UniProt P37840); conditions: transfected cells, immunoblot; cited from earlier work
T1 construct: expressed in transfected cells

[22] = target: T2, α-synuclein (Homo sapiens, UniProt P37840); parameters: expressed in transfected cells; host or cells: HeLa cells; conditions: HeLa cells, 20 mM, 1 hr; cited from earlier work
[23] = target: T2, α-synuclein; parameters: from tissue; host or cells: brain of hα-syn transgenic mice; conditions: mice; cited from earlier work
[24] = test system: MCF-7 cells; assay: Wound healing / gap closure migration assay, MCF-7; format: cell-based, human; conditions: extrapolated from the results in FIG. 35
Method: Cells were cultured in 24-well culture plates (Cytoselect CBA-120, 0.9 mm wound healing/gap closure migration assay) for 24 h with wound healing insert in place.
Protocol: Warm up the 24-well plate (CBA-120, Cell BioLabs Inc.) with 0.9 mm CytoSelect Wound Healing Inserts at room temperature for 10 minutes. Using sterile forceps, orient the desired number of inserts in the plate wells with their “wound field” aligned in the same direction. Create a cell suspension containing 0.5-1.0×10^6 cells/ml in media containing 10% fetal bovine serum (FBS). Add 500 μL of cell suspension to each well by carefully inserting the pipette tip through the open end at the top of the insert. For optimal cell dispersion, add 250 μL of cell suspension to either side of the open ends at the top of the insert. Incubate cells in a cell culture incubator for 12-24 hours. Carefully remove the insert from the well to begin the wound healing assay. Use sterile forceps to grab and lift the insert slowly from the plate well. Slowly aspirate and discard the media from the wells. Wash wells with media to remove dead cells and debris. Finally, add media to wells to keep cells hydrated. Repeat wash if wells still have debris or unattached cells. When washing is complete, add media with FBS and/or compounds to continue cell culture and wound healing process. Agents that inhibit or stimulate cell migration can be added directly to the wells. Incubate cells in a cell culture incubator (2 hours) and then wash cells with PBS and then add fresh media without compounds. Incubate 12-24 hours before wash and fixing. Remove the fixation solution and add 400 μL of Cell Stain Solution to each well. Allow the stain to incubate with the cells for 15 minutes at room temperature. Aspirate and discard the solution. Carefully wash each stained well 3× with deionized water. Discard washes and allow cells to dry at room temperature. Cells that migrated into the wounded area or protruded from the border of the wound were visualized and photographed under an inverted microscope. Determine the surface area of the defined wound area: Total Surface Area=0.9 mm x length. Determine the surface area of the migrated cells into the wound area: Migrated Cell Surface Area=length of cell migration (mm)×2×length. Percent Closure (%)=Migrated Cell Surface Area/Total Surface Area x 100.

[25] = test system: rats; conditions: cited from earlier work
[26] = cited from earlier work; remark: listed apart in the source
[27] = cited from earlier work; remark: listed apart in the source
[28] = test system: enlarged lysosomes in fibroblasts; conditions: about 6 mM α-CD vs about 8 mM HP-β-CD; cited from earlier work
[29] = test system: HaCaT keratinocytes; conditions: v. βCD; cited from earlier work
[30] = parenteral delivery; cited from earlier work
[31] = in vivo; cited from earlier work
[32] = test system: human erythrocytes; conditions: cited from earlier work
[33] = animal studies; cited from earlier work
[34] = test system: erythrocytes; conditions: cited from earlier work
[35] = test system: transferrin endocytosis; conditions: 10 mM; cited from earlier work
[36] = LDL-receptor knockout mice, Western diet (21% milk fat) with 2.1% α-CD; cited from earlier work
[37] = test system: rats; conditions: rat, in vivo, iv; cited from earlier work
[38] = test system: rats; conditions: cited from earlier work; for nephrosis, 1, 2, 3, 4, or 7 daily doses s.c.: 0.100 g/kg daily
[39] = test system: human keratinocytes; conditions: cited from earlier work

recovery of HP-α-CD from morning urine (resorption) [2]: not excreted
Compound: 2-hydroxypropyl-α-cyclodextrin [HP-α-CD]
Excretion of phospholipids into urine, adj (expected level in healthy subjects subtracted) ([1]; oral dose 18 g): 1.05 mM
Excretion of phospholipids into urine, adj per g dose ([1]; oral dose 18 g): 0.06 mM/g
Excretion of phospholipids into urine, avg ([1]; oral dose 18 g): 3.87 mM
Excretion of phospholipids into urine, single measurements ([1]; oral dose 18 g): 3.8 mM and 3.5 mM and 4.3 mM
Excretion of phospholipids into urine, adj (expected level in healthy subjects subtracted) ([1]; oral dose 22 g): 2.11 mM
Excretion of phospholipids into urine, adj per g dose ([1]; oral dose 22 g): 0.10 mM/g
Excretion of phospholipids into urine, avg ([1]; oral dose 22 g): 4.93 mM
Excretion of phospholipids into urine, single measurements ([1]; oral dose 22 g): 5.2 mM and 4.4 mM
Excretion of phospholipids into urine, adj (expected level in healthy subjects subtracted) ([1]; oral dose 26 g): 4.05 mM
Excretion of phospholipids into urine, adj per g dose ([1]; oral dose 26 g): 0.16 mM/g
Excretion of phospholipids into urine, avg ([1]; oral dose 26 g): 6.87 mM
Excretion of phospholipids into urine, single measurements ([1]; oral dose 26 g): 7.2 mM and 6.3 mM and 7.1 mM
Excretion of phospholipids into urine, adj (expected level in healthy subjects subtracted) ([1]; oral dose 30 g): 4.65 mM
Excretion of phospholipids into urine, adj per g dose ([1]; oral dose 30 g): 0.15 mM/g
Excretion of phospholipids into urine, avg ([1]; oral dose 30 g): 7.47 mM
Excretion of phospholipids into urine, single measurements ([1]; oral dose 30 g): 7.5 mM and 6.8 mM and 8.1 mM
Excretion of phospholipids into urine, adj (expected level in healthy subjects subtracted) ([1]; oral dose 36 g): 5.75 mM
Excretion of phospholipids into urine, adj per g dose ([1]; oral dose 36 g): 0.16 mM/g
Excretion of phospholipids into urine, avg ([1]; oral dose 36 g): 8.57 mM
Excretion of phospholipids into urine, single measurements ([1]; oral dose 36 g): 8.2 mM and 8.8 mM and 8.7 mM
Excretion of phospholipids into urine, adj (expected level in healthy subjects subtracted) ([1]; oral dose 44 g): 4.88 mM
Excretion of phospholipids into urine, adj per g dose ([1]; oral dose 44 g): 0.11 mM/g
Excretion of phospholipids into urine, avg ([1]; oral dose 44 g): 7.70 mM
Excretion of phospholipids into urine, single measurements ([1]; oral dose 44 g): 8.0 mM and 7.6 mM and 7.5 mM
side effect observed ([1]; oral, only at the highest (44 g) dose): softening of stool
Tumor Volume [3]: effective
Solubility in water ([4]; Table 1): >500 g/L
Solubility in water ([4]; Table 3): ~500^a g/l
BBB breakdown [5]: 2.5 mM
UC storage in brain cells [6]: clearly reduced
cytotoxicity [7]: less cytotoxic than α-CD

Compound: methyl-β-cyclodextrin [MβCD]
toxicity on BBB in vitro [5]: similar
protection of A2E against oxidation [8]: protect A2E against oxidation
APPsα levels in the medium [9]: increased
APPsβ levels in the medium [9]: did not change
levels of intracellular APPsβ [9]: decrease
levels of α secretase cleavage products C83 [9]: increase
LPC or FFA mediated surfactant inhibition [10]: reversed
decrease in activity of BC resistance protein (BCRP/ABCG2) [11]: 40%
invasion activity [12]: suppressed invasion activity
spheroid migration and invasion [13]: inhibited
endocytosis and migration [14]: inhibited
secretion of Aβ [15]: inhibits secretion
number of lung metastases [16]: reduced the number of lung metastases
growth of primary effusion lymphoma (PEL) [17]: inhibited growth
efficacy in a mouse model of BC [18]: effective
internalization of exosomes containing integrins [19]: inhibited
cholesterol accumulation [20]: most potent
level of a-syn in the membrane fraction and detergent-insoluble fraction [21]: reduced the level of a-syn
co-location of α-synuclein with the cell membrane [22]: dramatically reduced
accumulation of α-synuclein in neuronal cell body and synapses [23]: reduced accumulation

Compound: OC[C@H]1O[C@@H]2O[C@H]3[C@H](O)[C@@H](O)[C@@H](O[C@H]4[C@H](O)[C@@H](O)[C@@H](O[C@H]5[C@H](O)[C@@H](O)[C@@H](O[C@H]6[C@H](O)[C@@H](O)[C@@H](O[C@H]7[C@H](O)[C@@H](O)[C@@H](O[C@H]1[C@H](O)[C@H]2O)O[C@@H]7CO)O[C@@H]6CO)O[C@@H]5CO)O[C@@H]4CO)O[C@@H]3CO [α-CD, alpha-cyclodextrin]
dose with the same efficacy in preventing migration of cancer cells as 2000 mg/kg/d bCD [24]: 700 mg/kg/day
Solubility in water ([4]; Table 3): 130 to 145 g/L
nephrosis, single dose s.c. ([25]; 0.100 g/kg): 0.100 no changes
nephrosis, single dose s.c. ([25]; 1.000 g/kg): 1.000 changes seen
oral absorption in rats [26]: 2-3%
i.v. toxicity, 1 g daily [27]: 1 died
BBB breakdown [5]: 1 mM
toxicity on BBB in vitro [5]: more toxic
protection of A2E against oxidation [8]: not
reducing lysosomal storage [28]: more effective
toxicity in HaCaT cells (proliferation, caspase activity, lactose dehydrogenase) [29]: lower toxicity
excretion into the urine [30]: excreted almost completely in an intact form
tolerance in cyclosporine eye-drops [31]: well tolerated
hemolytic activity / tolerance of human erythrocytes [32]: lower than that of both β-CD and HP-β-CD; also recorded: tolerate α-CD better then β-CD
ototoxicity [33]: did not show ototoxicity
phospholipids released ([34]; 10 mM): 30%
extraction of cholesterol ([34]; erythrocytes): negligible
reduction of transferrin endocytosis [35]: 20%
cholesterol accumulation [20]: can reduce cholesterol accumulation
decrease of plasma PLs [36]: 17.5%
single dose i.v. LD50 [37]: 0.788/1.008 * g/kg
nephrosis, 1, 2, 3, 4, or 7 daily doses s.c. ([38]; listed as α-cyclodextrin): not apparent
nephrosis, 1, 2, 3, 4, or 7 daily doses s.c. [38]: 0.100 no nephrosis
deaths, daily doses s.c. ([38]; 1.000 g/kg daily, listed as α-cyclodextrin): 1 died after 2 days
deaths, daily doses s.c. ([38]; 1.000 g/kg daily): one died after 2 days
nephrosis, daily doses s.c. ([38]; 1.000 g/kg daily): 1.000 severe
apoptotic cell death [39]: not apoptotic
